According to publication PMC2580802 (Cell, 2008):
Values after ≈ are worked out from the molar mass of the structure shown. Where two headings read alike, the source gives them in different places.

Key:
[1] = tested on: E. coli mutants with single substitutions in RNAP β′ or β subunit; type: cell-based
[2] = tested on: E. coli DH21f2tolC; type: cell-based; settings: assessed with E. coli DH21f2tolC; J.M. and R.H.E., unpublished
[3] = molecular target: T1, Myx^r RNAP ([Arg345]β′-RNAP) (Escherichia coli, UniProt P0A8T7+P0A8V2, K345R); type: biochemical, E. coli
[4] = molecular target: T. thermophilus RNAP holoenzyme (Thermus thermophilus, UniProt Q8RQE8+Q8RQE9); type: biochemical; settings: read-out: IC50, inhibition of T. thermophilus RNAP holoenzyme
[5] = molecular target: T2, wild-type RNAP (Escherichia coli, UniProt P0A8T7+P0A8V2)
[6] = molecular target: T2, wild-type RNAP; remark: listed apart in the source
[7] = molecular target: T1, Myx^r RNAP ([Arg345]β′-RNAP)
[8] = tested on: Enterobacter cloacae; settings: cited from earlier work
[9] = tested on: bacterial RNAP; settings: read-out: IC50, inhibition of bacterial RNAP; cited from earlier work
[10] = tested on: eukaryotic RNAP II; settings: cited from earlier work
[11] = tested on: E. coli with wild-type RNAP β′ and wild-type RNAP β; assay: microbe, parasite or virus in culture; type: cell-based; settings: Escherichia coli
[12] = tested on: Staphylococcus aureus; settings: ref Irschik et al., 1995; J.M. and R.H.E., unpublished; cited from earlier work
[13] = tested on: Escherichia coli DH21tolC; settings: ref Irschik et al., 1995; J.M. and R.H.E., unpublished; cited from earlier work

SMILES | increase in MIC ([1]; all four Myx^r mutants from random mutagenesis (Table S1)) | increase in MIC ([1]; three of four Myx^r mutants from random mutagenesis (Table S1)) | bacteriocidal activity [2] | inhibition of transcription with Myx^r RNAP [3] | IC50 [4] | IC50 ([5]; read-out: IC50, inhibition of formation of abortive products, run-off transcription, promoter DNA fragment) | inhibition of formation of stable, heparin-resistant RNAP-DNA complex ([6]; fork-junction DNA fragment (lacks positions −11 to +15 of template strand)) | inhibition of formation of stable, heparin-resistant RNAP-DNA complexes ([6]; nontemplate-strand oligonucleotide (positions −21 to +15)) | IC50 ([6]; read-out: IC50, inhibition of formation of stable, heparin-resistant RNAP-promoter open complex, promoter DNA fragment) | inhibition of open-complex formation with Myx^r RNAP [7] | MIC [8] | IC50 [9] | inhibition of eukaryotic RNAP II [10] | cross-resistance of Myx^r mutants ([1]; Myx^r mutants (Table 1)) | MIC [11] | effect on transcription initiation [5] | effect on interaction of RNAP with promoter DNA [6] | MIC [12] | MIC [13]
CCC/C(C)=C/C=C(\C)C(=O)c1c(O)cc([C@H](C)CC/C=C/NC(=O)OC)oc1=O [Myx, myxopyronin A] | ≥ 2 fold | ≥ 32 fold | bacteriocidal | abrogates inhibition | 20000 nM | 1700 ± 600 nM | does not inhibit | does not inhibit | 800 ± 300 nM | abrogates inhibition | ≤ 12.5 µg/mL | ~1000 nM | does not inhibit | – | – | – | – | – | –
CO[C@H]1/C=C/O[C@@]2(C)Oc3c(C)c(O)c4c(O)c(c(/C=N/N5CCN(C)CC5)c(O)c4c3C2=O)NC(=O)/C(C)=C\C=C\[C@H](C)[C@H](O)[C@@H](C)[C@@H](O)[C@@H](C)[C@H](OC(C)=O)[C@@H]1C [Rif, rifampicin] | – | – | – | – | – | – | – | – | – | – | – | – | – | do not exhibit cross-resistance | 0.1 µg/mL (≈ 0.122 µM) | – | – | – | –
C/C=C/C/C=C(\C)C(O)CC/C(C)=C/C=C(\C)C(=O)c1c(O)cc([C@H](C)CC/C=C/NC(=O)OC)oc1=O (stereo partly shown) [Cor, corallopyronin A] | – | – | bacteriocidal | – | – | – | – | – | – | – | – | ~4000 nM | does not inhibit | – | 1.6 µg/mL (≈ 3.03 µM) | inhibits transcription initiation | prevents interaction of RNAP with promoter DNA | – | –
C/C(=C\Cc1ccccc1)CC[C@@]1(O)C[C@H]2C[C@@H](C/C(C)=C/C/C=C/C/C(CC(=O)O)=C\C(=O)O2)O1 [Rip, ripostatin A] | – | – | bacteriocidal | – | – | – | – | – | – | – | – | ~800 nM | does not inhibit | – | – | inhibits transcription initiation | prevents interaction of RNAP with promoter DNA | ≤ 1 µg/mL | ≤ 1 µg/mL
